IC50 data for 20 compounds are collected here from patent US20200069648A1, “HALOALLYLAMINE PYRAZOLE DERIVATIVE INHIBITORS OF LYSYL OXIDASES AND USES THEREOF” (Pharmaxis Ltd., priority 2017, published 2020).

The structures appear in SMILES notation. Structures can show the parent of a compound that is named as a salt. Where only a bound is given, the exact number is not on record here.

One assay deals with T1, Bovine LOX (Bos taurus, UniProt P33072).
T1 sequence (P33072 170-418): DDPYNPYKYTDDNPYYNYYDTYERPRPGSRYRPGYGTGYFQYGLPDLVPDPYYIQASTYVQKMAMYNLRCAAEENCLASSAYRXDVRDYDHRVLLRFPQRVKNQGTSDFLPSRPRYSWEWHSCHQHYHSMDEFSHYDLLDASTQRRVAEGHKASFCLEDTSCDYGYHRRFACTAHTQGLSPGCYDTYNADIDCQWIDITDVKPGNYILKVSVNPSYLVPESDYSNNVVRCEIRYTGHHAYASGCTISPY
Kind of assay: LOX amine oxidase inhibition, peroxidase-coupled Amplex Red assay. Type of assay: biochemical. The settings on record: 30 min preincubation at 37° C., putrescine substrate. Put shortly:
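Bovine LOX in 1.2 M urea, 50 mM sodium borate pH 8.2 […]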

Assay [1] concerns the target T2, human recombinant SSAO/VAP-1 (Homo sapiens, UniProt Q16853).
T2 construct: a cloned cDNA template corresponding to residues 34-763 of human SSAO/VAP-1; TEV cleavage site (N); made in house
T2 sequence (Q16853 34-763): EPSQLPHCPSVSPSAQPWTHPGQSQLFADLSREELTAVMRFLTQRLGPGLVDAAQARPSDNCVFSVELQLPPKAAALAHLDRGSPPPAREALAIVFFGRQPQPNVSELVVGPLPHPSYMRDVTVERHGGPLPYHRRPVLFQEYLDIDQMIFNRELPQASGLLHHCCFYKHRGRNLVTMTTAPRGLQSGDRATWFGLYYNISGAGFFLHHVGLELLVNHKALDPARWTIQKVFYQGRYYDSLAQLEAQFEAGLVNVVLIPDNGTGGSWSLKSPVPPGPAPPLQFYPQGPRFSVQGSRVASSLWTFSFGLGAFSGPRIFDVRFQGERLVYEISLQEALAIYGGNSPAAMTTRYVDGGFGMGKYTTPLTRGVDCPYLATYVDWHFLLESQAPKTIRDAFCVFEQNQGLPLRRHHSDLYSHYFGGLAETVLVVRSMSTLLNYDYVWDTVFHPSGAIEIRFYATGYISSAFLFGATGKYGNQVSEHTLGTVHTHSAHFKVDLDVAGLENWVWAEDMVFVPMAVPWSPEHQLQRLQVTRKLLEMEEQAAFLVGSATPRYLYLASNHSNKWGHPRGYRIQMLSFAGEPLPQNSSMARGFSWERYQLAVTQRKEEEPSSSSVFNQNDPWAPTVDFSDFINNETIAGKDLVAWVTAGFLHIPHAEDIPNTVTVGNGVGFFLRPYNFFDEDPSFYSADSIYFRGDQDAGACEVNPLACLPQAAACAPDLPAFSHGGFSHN
Kind of assay: Human recombinant SSAO/VAP-1 amine oxidase inhibition. Type of assay: biochemical. The conditions noted are these: 30 min preincubation at 37° C., 600 μM benzylamine. On the procedure: Method to Determine the Ability of Compounds of Formula I to Inhibit Human Recombinant SSAO/VAP-1
Human recombinant SSAO/VAP-1 amine oxidase activity was determined using the coupled colorimetric method as described for monoamine oxidase, copper-containing amine oxidases and related enzymes (Holt A. and Palcic M., A peroxidase-coupled continuous absorbance plate-reader assay for flavin monoamine oxidases, copper-containing amine oxidases and related enzymes. Nat Protoc 2006; 1: 2498-2505). Briefly, a cloned cDNA template corresponding to residues 34-763 of human SSAO/VAP-1, and incorporating a mouse Ig kappa (κ) signal sequence, N-terminal flag epitope tag and tobacco etch virus (TEV) cleavage site, was assembled in a mammalian expression vector (pLO-CMV) by Geneart AG. This vector containing human SSAO/VAP-1 residues was transfected into CHO-K1 glycosylation mutant cell line, Lec 8. A clone stably expressing human SSAO/VAP-1 was isolated and cultured in large scale. Active human SSAO/VAP-I was purified and recovered using immunoaffinity chromatography. This was used as the source for SSAO/VAP-1 activity. A high-throughput colorimetric assay was developed using either 96 or 384 well format. Briefly, in a standard 96 well plate assay 50 μL of purified human SSAO/VAP-1 (0.25 μg/mL) in 0.1 M sodium phosphate buffer (pH 7.4) was added into each well. Test compounds were dissolved in DMSO and tested in a Concentration Response Curve (CRC) with 4-11 data points, typically in the micromolar or nanomolar range after incubation with human SSAO/VAP-1 for 30 min at 37° C. After 30 min incubation, 50 μL of the reaction mixture containing 600 μM benzylamine (Sigma Aldrich), 120 μM Amplex Red (Sigma Aldrich) and 1.5 U/mL horseradish peroxidase (Sigma Aldrich) prepared in 0.1 M sodium phosphate buffer (pH 7.4) were added to the corresponding well. The fluorescence unit (RFU) was read every 2.5 min for 30 min at 37° C. excitation 565 nm and emission 590 (Optima; BMG labtech). The slope of the kinetics for each well was calculated using MARS data analysis software (BMG labtech) and this value was used to deduce the IC50 value (Dotmatics).

For orientation: IC50 means the concentration needed to halve the response being measured. Consider `Cc1nn(C/C(F)=C/CN)c(C)c1Cc1ccc(S(=O)(=O)N(C)C)cc1` [Compound 2, (Z)-4-((1-(4-amino-2-fluorobut-2-en-1-yl)-3,5-dimethyl-1H-pyrazol-4-yl)methyl)-N,N-dimethylbenzenesulfonamide hydrochloride], for which the IC50 is less than 10 µM at Bovine LOX and greater than 30 µM in assay [1].

On to `Cc1nn(Cc2ccc(S(C)(=O)=O)c(Cl)c2)c(C)c1C/C(F)=C/CN` [Compound 24, (Z)-4-(1-(3-chloro-4-(methylsulfonyl)benzyl)-3,5-dimethyl-1H-pyrazol-4-yl)-3-fluorobut-2-en-1-amine hydrochloride], for which the IC50 against Bovine LOX was less than 10 µM; in assay [1] it was greater than 30 µM.

Regarding `CN(C)S(=O)(=O)c1ccc(-c2cnn(C/C(F)=C/CN)c2)cc1` [Compound 1, (Z)-4-(1-(4-amino-2-fluorobut-2-en-1-yl)-1H-pyrazol-4-yl)-N,N-dimethyl benzenesulfonamide hydrochloride], the IC50 (on Bovine LOX; in assay [1]) was less than 10 µM each time.

On to `Cc1c(Cc2ccc(S(=O)(=O)N(C)C)cc2)c(C(=O)O)nn1C/C(F)=C/CN` [Compound 31, (Z)-1-(4-amino-2-fluorobut-2-enyl)-4-(4-(N,N-dimethylsulfamoyl)benzyl)-5-methyl-1H-pyrazole-3-carboxylic acid hydrochloride], for which the figures for the half-inhibitory concentration (IC50) (against Bovine LOX; in assay [1]) were greater than 10 µM and greater than 30 µM, respectively.

As for `CCOC(=O)c1c(Cc2ccc(S(=O)(=O)N(C)C)cc2)c(C)nn1C/C(F)=C/CN` [Compound 27, (Z)-ethyl 1-(4-amino-2-fluorobut-2-enyl)-4-(4-(N,N-dimethylsulfamoyl)benzyl)-3-methyl-1H-pyrazole-5-carboxylate hydrochloride], the IC50 on Bovine LOX was less than 10 µM; in assay [1], greater than 30 µM.

On to `Cc1nn(C/C(F)=C/CN)c(C(=O)N(C)C)c1Cc1ccc(S(=O)(=O)N(C)C)c(Cl)c1` [Compound 61, (Z)-1-(4-amino-2-fluorobut-2-en-1-yl)-4-(3-chloro-4-(N,N-dimethylsulfamoyl)benzyl)-N,N,3-trimethyl-1H-pyrazole-5-carboxamide hydrochloride], for which the IC50 is greater than 10 µM on Bovine LOX and greater than 30 µM in assay [1].

On to `Cc1nn(C/C(F)=C/CN)c(C)c1Cc1ccc(S(=O)(=O)N2CCOCC2)cc1` [Compound 6, (Z)-4-(3,5-dimethyl-4-(4-(morpholinosulfonyl)benzyl)-1H-pyrazol-1-yl)-3-fluorobut-2-en-1-amine hydrochloride], for which the IC50 at Bovine LOX was less than 10 µM; in assay [1] it was greater than 30 µM.

For `CNS(=O)(=O)c1ccc(Cn2nc(C)c(C/C(F)=C/CN)c2C)cc1Cl` [Compound 22, (Z)-4-((4-(4-amino-2-fluorobut-2-en-1-yl)-3,5-dimethyl-1H-pyrazol-1-yl)methyl)-2-chloro-N-methylbenzenesulfonamide hydrochloride], the figures for the IC50 (on Bovine LOX; in assay [1]) were less than 10 µM and greater than 10 µM, respectively.

For the compound `Cc1nn(C/C(F)=C/CN)c(C)c1Cc1ccc(S(C)(=O)=O)cc1` [Compound 4, (Z)-4-(3,5-dimethyl-4-(4-(methylsulfonyl)benzyl)-1H-pyrazol-1-yl)-3-fluorobut-2-en-1-amine hydrochloride], the results for the IC50 (on Bovine LOX; in assay [1]) were less than 10 µM and greater than 30 µM, respectively.

Consider `Cc1nn(C/C(F)=C/CN)c(C)c1Cc1ccc(S(=O)(=O)NC(C)C)cc1` [Compound 11, (Z)-4-((1-(4-amino-2-fluorobut-2-en-1-yl)-3,5-dimethyl-1H-pyrazol-4-yl)methyl)-N-isopropyl benzenesulfonamide hydrochloride], for which the IC50 (against Bovine LOX; in assay [1]) was less than 10 µM in each case.

Take `Cc1nn(Cc2ccc(S(=O)(=O)N(C)C)cc2)c(C)c1C/C(F)=C/CN` [Compound 10, (Z)-4-((4-(4-amino-2-fluorobut-2-en-1-yl)-3,5-dimethyl-1H-pyrazol-1-yl)methyl)-N,N-dimethylbenzenesulfonamide hydrochloride]: the IC50 (on Bovine LOX; in assay [1]) was less than 10 µM each time.

In the case of `CNS(=O)(=O)c1ccc(Cn2nc(C)c(C/C(F)=C/CN)c2C)c(Cl)c1` [Compound 20, (Z)-4-((4-(4-amino-2-fluorobut-2-en-1-yl)-3,5-dimethyl-1H-pyrazol-1-yl)methyl)-3-chloro-N-methylbenzenesulfonamide hydrochloride], the IC50 (against Bovine LOX; in assay [1]) was less than 10 µM in each case.

Take `Cc1nn(C/C(F)=C/CN)c(C(=O)NC(C)(C)C)c1Cc1ccc(S(=O)(=O)N(C)C)c(Cl)c1` [Compound 62, (Z)-1-(4-amino-2-fluorobut-2-en-1-yl)-N-(tert-butyl)-4-(3-chloro-4-(N,N-dimethylsulfamoyl)benzyl)-3-methyl-1H-pyrazole-5-carboxamide hydrochloride]: the IC50 on Bovine LOX was less than 10 µM; in assay [1] it was greater than 30 µM.

Consider `CC(C)c1nn(C/C(F)=C/CN)c(C(C)C)c1Cc1ccc(S(=O)(=O)N(C)C)c(Cl)c1` [Compound 60, (Z)-4-((1-(4-amino-2-fluorobut-2-en-1-yl)-3,5-diisopropyl-1H-pyrazol-4-yl)methyl)-2-chloro-N,N-dimethylbenzenesulfonamide hydrochloride], for which the IC50 is less than 10 µM at Bovine LOX and greater than 30 µM in assay [1].

As to `Cc1nn(Cc2ccc(S(C)(=O)=O)cc2Cl)c(C)c1C/C(F)=C/CN` [Compound 21, (Z)-4-(1-(2-chloro-4-(methylsulfonyl)benzyl)-3,5-dimethyl-1H-pyrazol-4-yl)-3-fluorobut-2-en-1-amine hydrochloride], the half-inhibitory concentration (IC50) (against Bovine LOX; in assay [1]) was less than 10 µM throughout.

In the case of `N#CCCN` [BAPN, β-aminopropionitrile, reference compound], the IC50 against Bovine LOX was less than 1 µM; in assay [1], greater than 100 µM.

Consider `Cc1nn(C/C(F)=C/CN)c(C)c1Cc1ccc(S(=O)(=O)N(C)C)c2ccccc12` [Compound 9, (Z)-4-((1-(4-amino-2-fluorobut-2-en-1-yl)-3,5-dimethyl-1H-pyrazol-4-yl)methyl)-N,N-dimethyl naphthalene-1-sulfonamide hydrochloride], for which the IC50 against Bovine LOX is less than 10 µM; in assay [1], greater than 10 µM.

Regarding `Cc1nn(C/C(F)=C/CN)c(C)c1Cc1ccc(S(=O)(=O)N(C)C)cc1Cl` [Compound 3, (Z)-4-((1-(4-amino-2-fluorobut-2-en-1-yl)-3,5-dimethyl-1H-pyrazol-4-yl)methyl)-3-chloro-N,N-dimethylbenzenesulfonamide hydrochloride], the IC50 against Bovine LOX is less than 10 µM; in assay [1], greater than 30 µM.

In the case of `CCc1nn(C/C(F)=C/CN)c(CC)c1Cc1ccc(S(=O)(=O)N(C)C)cc1` [Compound 13, (Z)-4-((1-(4-amino-2-fluorobut-2-en-1-yl)-3,5-diethyl-1H-pyrazol-4-yl)methyl)-N,N-dimethyl benzenesulfonamide hydrochloride], the values for the IC50 (against Bovine LOX; in assay [1]) were less than 10 µM and greater than 30 µM, respectively.

Regarding `Cc1nn(C/C(F)=C/CN)c(C)c1Cc1ccc(S(=O)(=O)N2CCCC2)cc1` [Compound 7, (Z)-4-(3,5-dimethyl-4-(4-(pyrrolidin-1-ylsulfonyl)benzyl)-1H-pyrazol-1-yl)-3-fluorobut-2-en-1-amine hydrochloride], the IC50 is less than 10 µM at Bovine LOX and greater than 10 µM in assay [1].
